The numbers were not newly measured in patent US7253193B2, “Cyanoguanidine prodrugs” (LEO Pharma A/S, priority 2002, dated 2007), which cites them from elsewhere.

Data set [1] deals with human lung cancer tumour xenograft.
For data set [2], the system named is human lung and breast cancer cell lines.
Another data set deals with human tumour cells. Particulars: also against tumour cells resistant to conventional anticancer drugs such as paclitaxel.

Take `N#CNC(=Nc1ccncc1)NCCCCCCOc1ccc(Cl)cc1` [N-(6-(4-chlorophenoxy)hexyl)-N′-cyano-N″-(4-pyridyl)guanidine]: the “antitumour activity in the nude mouse model” value in data set [1] is given as “potent antitumour activity”. Besides, the “antiproliferative activity in vitro” value in data set [2] is “high antiproliferative activity in vitro”. In the data set with human tumour cells, the “antitumour activity in vivo” value was “substantial antitumour activity”.
